Laboratory results: the supplement of paper PMC10307832

Experiments:
Test in all cases: relative viability (nuclei count vs DMSO), 5 days (fraction); higher = more cells survive
Dasatinib + Olaparib = compound: Cc1nc(Nc2ncc(C(=O)Nc3c(C)cccc3Cl)s2)cc(N2CCN(CCO)CC2)n1 [Dasatinib] + O=C(c1cc(Cc2n[nH]c(=O)c3ccccc23)ccc1F)N1CCN(C(=O)C2CC2)CC1 [Olaparib] (partner 8 µM)
In short: (§1)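 After 5 days of treatment, lung cancer cells in 1536-well plates were fixed and stained in a single step (final 0.05% Triton X-100, 1% formaldehyde, 1 ug/ml Hoechst) and their nuclei counted on 4× images. Treatment had been applied by pin tool the day after seeding as one drug alone or as a fixed anchor-drug dose with five library-drug doses (not always all listed) in √10 steps. Relative viability is the nuclei count of treated wells divided by that of vehicle wells, and values are medians of duplicate plates.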

ALW-II-49-7 + Foretinib = compound: Cc1ccc(C(=O)Nc2cccc(C(F)(F)F)c2)cc1Nc1cncc(C(N)=O)c1 [ALW-II-49-7] + COc1cc2c(Oc3ccc(NC(=O)C4(C(=O)Nc5ccc(F)cc5)CC4)cc3F)ccnc2cc1OCCCN1CCOCC1 [Foretinib] (partner 0.25 µM)
In short: as §1

Dasatinib + Trametinib = compound: Cc1nc(Nc2ncc(C(=O)Nc3c(C)cccc3Cl)s2)cc(N2CCN(CCO)CC2)n1 [Dasatinib] + CC(=O)Nc1cccc(-n2c(=O)n(C3CC3)c(=O)c3c(Nc4ccc(I)cc4F)n(C)c(=O)c(C)c32)c1 [Trametinib] (partner 0.02 µM)
In short: as §1

Dasatinib + Pictilisib = compound: Cc1nc(Nc2ncc(C(=O)Nc3c(C)cccc3Cl)s2)cc(N2CCN(CCO)CC2)n1 [Dasatinib] + CS(=O)(=O)N1CCN(Cc2cc3nc(-c4cccc5[nH]ncc45)nc(N4CCOCC4)c3s2)CC1 [Pictilisib] (partner 1 µM)
In short: as §1

Cell Line	relative viability (Dasatinib + Olaparib; first compound 0.005 µM)	relative viability (Dasatinib + Olaparib; first compound 0.01581 µM)	relative viability (Dasatinib + Olaparib; first compound 0.05 µM)	relative viability (Dasatinib + Olaparib; first compound 0.1581 µM)	relative viability (Dasatinib + Olaparib; first compound 0.5 µM)	relative viability (ALW-II-49-7 + Foretinib; first compound 0.08 µM)	relative viability (ALW-II-49-7 + Foretinib; first compound 0.253 µM)	relative viability (ALW-II-49-7 + Foretinib; first compound 0.8 µM)	relative viability (ALW-II-49-7 + Foretinib; first compound 2.53 µM)	relative viability (ALW-II-49-7 + Foretinib; first compound 8 µM)	relative viability (Dasatinib + Trametinib; first compound 0.005 µM)	relative viability (Dasatinib + Trametinib; first compound 0.01581 µM)	relative viability (Dasatinib + Trametinib; first compound 0.05 µM)	relative viability (Dasatinib + Trametinib; first compound 0.1581 µM)	relative viability (Dasatinib + Trametinib; first compound 0.5 µM)	relative viability (Dasatinib + Pictilisib; first compound 0.005 µM)	relative viability (Dasatinib + Pictilisib; first compound 0.01581 µM)	relative viability (Dasatinib + Pictilisib; first compound 0.05 µM)	relative viability (Dasatinib + Pictilisib; first compound 0.1581 µM)	relative viability (Dasatinib + Pictilisib; first compound 0.5 µM)
COR-L23	0.338	0.294	0.325	0.208	0.211	1.1	1.09	0.903	0.913	0.945	0.563	0.416	0.48	0.444	0.281	0.714	0.608	0.744	0.34	0.207
RERF-LC-KJ	0.906	0.836	0.87	0.788	0.816	0.84	0.874	0.941	0.933	0.902	0.855	0.784	0.765	0.668	0.658	0.543	0.518	0.53	0.398	0.403
NCI-H1755	0.806	0.577	0.68	0.408	0.279	0.875	1.06	0.807	0.931	0.825	0.752	0.68	0.658	0.444	0.301	0.317	0.21	0.191	0.182	0.139
PC-14	0.29	0.31	0.368	0.224	0.0781	0.935	0.634	0.841	0.924	0.89	0.882	0.642	0.743	0.418	0.0498	0.631	0.458	0.529	0.232	0.0479
NCI-H322M	0.707	0.575	0.492	0.322	0.244	0.825	0.996	0.908	0.771	0.962	0.543	0.44	0.429	0.333	0.269	0.433	0.408	0.37	0.245	0.171
NCI-H1666	0.756	0.752	0.73	0.782	0.676	0.954	0.887	0.964	1.05	1.05	0.879	0.858	0.986	0.776	0.833	0.546	0.442	0.522	0.295	0.316
A-427	0.704	0.646	0.637	0.574	0.563	1.16	0.95	1.12	1.14	1.2	0.76	0.598	0.713	0.433	0.408	0.705	0.674	0.663	0.511	0.461
NCI-H1651	0.178	0.175	0.174	0.17	0.16	0.989	0.631	0.953	0.678	0.852	0.848	0.852	0.834	0.77	0.679	0.716	0.499	0.46	0.423	0.419
NCI-H1793	0.69	0.404	0.385	0.367	0.521	0.667	0.642	0.728	0.701	0.855	0.4	0.353	0.317	0.357	0.322	0.316	0.395	0.29	0.311	0.31
NCI-H520	0.335	0.244	0.237	0.127	0.16	0.904	0.697	0.971	0.777	0.555	0.614	0.322	0.298	0.144	0.205	0.278	0.265	0.213	0.148	0.157
201T	0.783	0.753	0.707	0.636	0.445		1.24	1.01	0.447	1.13	0.695	0.64	0.708	0.575	0.44	0.664	0.517	0.627	0.521	0.383
NCI-H460	0.362	0.383	0.38	0.247	0.199	1.09	1.05	0.84	1.02	0.899	0.0853	0.0968	0.0795	0.0504	0.0455	0.195	0.102	0.208	0.189	0.104
NCI-H596	0.685	0.575	0.525	0.517	0.466	0.949	0.902	0.886	0.841	0.937	0.7	0.578	0.56	0.431	0.323	0.349	0.348	0.312	0.475	0.118
HARA	0.822	0.625	0.517	0.186	0.188	0.646	0.836	1.03	0.887	1.04	0.714	0.31	0.518	0.189	0.212	0.204	0.259	0.346	0.157	0.0728
NCI-H2170	0.585	0.572	0.525	0.427	0.263	0.908	1.12	1.01	0.999	1.01	0.929	0.828	0.834	0.651	0.365	0.286	0.234	0.257	0.265	0.203
NCI-H2126	0.932	0.84	0.845	0.681	0.416	0.805	0.998	1.21	0.998	1.11	0.641	0.425	0.551	0.424	0.309	0.512	0.446	0.443	0.387	0.288
